Patent US20090023773A1, “COMPOSITIONS AND METHODS FOR MODULATING GATED ION CHANNELS” (PainCeptor Pharma Corporation, priority 2007, published 2009)

System: ASIC2a+3
Test: Whole cell patch clamp of ASIC2a/3 channel complex heterologously expressed in CHO cells (Example 3)
Assay type: cell-based
Details: 50 μM; CHO cells expressing ASIC2a+3; FIG. 10A
Procedure: Another example of an in vitro assessment method consists of using mammalian heterologous expression systems, which are known to the skilled in the art, and include a variety of mammalian cell lines such as COS, HEK, e.g., HEK293 and/or CHO, cells. Cell lines are transfected with gated ion channel(s) and used to perform electrophysiology as follows: All experiments are performed at room temperature (20-25° C.) in voltage clamp using conventional whole cell patch clamp methods (Neher, E., et al. (1978) Pfluegers Arch 375:219-228). The amplifier used is the EPC-9 (HEKA-electronics, Lambrect, Germany) run by a Macintosh G3 computer via an ITC-16 interface. Experimental conditions are set with the Pulse-software accompanying the amplifier. Data is low pass filtered and sampled directly to hard-disk at a rate of 3 times the cut-off frequency. […] The cells are held at a holding voltage of −60 mV and at the start of each experiment the current is continuously measured for 45 s to ensure a stable baseline. […] Current amplitudes are measured at the peak of the responses, and effect of the compounds is calculated as the amplitude at compound equilibrium divided by the amplitude of the current evoked by the pulse just before the compound is included. […] The trace represents the current evoked by the pH drop recorded using whole cell patch clamp electrophysiology.

## Cc1ccc(-c2nc(Nc3ccc(C(=O)O)cc3)c3cc(Cl)ccc3n2)cc1 [Compound 124]
  pH evoked response (ASIC2a+3 current): markedly reduced
